Assays:
[1] = system: Pyrenophora teres; assay: Pyrenophora teres / barley / leaf disc preventative (net blotch); assay type: in vivo; conditions: foliar, barley leaf segments cv Hasso, inoculated two days after application, assessed 5-7 days after application, read-out: control of Pyrenophora teres (disease control compared to untreated)
Outline: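 Preventative leaf-disc test: 200 ppm spray, then spore inoculation after two days on barley cv Hasso segments. Incubation 20 °C, 65% relative humidity, 12 h light/12 h dark; efficacy rated against untreated checks at 5-7 days post-application.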

[2] = system: Botryotinia fuckeliana (Botrytis cinerea); assay: Botryotinia fuckeliana (Botrytis cinerea) / liquid culture (gray mould); assay type: cell-based; conditions: Vogels broth, 24° C., 3-4 days after application, read-out: control of Botryotinia fuckeliana (inhibition of growth, photometric)
Outline: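 Test compound was applied at 200 ppm in DMSO, then Vogels nutrient broth containing cryo-stored B. cinerea conidia was added. Photometric growth-inhibition reading followed after 3-4 days at 24 °C.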

[3] = system: Mycosphaerella arachidis (Cercospora arachidicola); assay: Mycosphaerella arachidis (Cercospora arachidicola) / liquid culture (early leaf spot); assay type: cell-based; conditions: PDB, 24° C., 4-5 days after application, read-out: control of Mycosphaerella arachidis (inhibition of growth, photometric)
Protocol: (§1) Mycosphaerella Arachidis (Cercospora arachidicola)/Liquid Culture (Early Leaf Spot): Conidia of the fungus from cryogenic storage were directly mixed into nutrient broth (PDB potato dextrose broth). After placing a DMSO solution of test compound into a 96-well microtiter plate at an application rate of 200 ppm, the nutrient broth containing the fungal spores was added. The test plates are incubated at 24° C. and the inhibition of growth was determined photometrically 4-5 days after application.

[4] = system: Mycosphaerella graminicola (Septoria tritici); assay: Mycosphaerella graminicola (Septoria tritici) / liquid culture (Septoria blotch); assay type: cell-based; conditions: Zymoseptoria tritici, PDB, 24° C., 4-5 days after application, read-out: control of Mycosphaerella graminicola (inhibition of growth, photometric)
Outline: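 Growth inhibition was read photometrically after 4–5 days at 24 °C. The test compound was applied at 200 ppm from DMSO solution, then PDB broth seeded with conidia taken straight from cryogenic storage was added.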

[5] = system: Gaeumannomyces graminis; assay: Gaeumannomyces graminis / liquid culture (take-all of cereals); assay type: cell-based; conditions: PDB, 24° C., 4-5 days after application, read-out: control of Gaeumannomyces graminis (inhibition of growth, photometric)
Outline: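 Growth inhibition, measured by photometry 4-5 days post-application at 24 °C, of fungal mycelial fragments in PDB broth. Test compound applied as DMSO solution at 200 ppm.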

[6] = system: Thanatephorus cucumeris (Rhizoctonia solani); assay: Thanatephorus cucumeris (Rhizoctonia solani) / liquid culture (foot rot, damping-off); assay type: cell-based; conditions: PDB, 24° C., 3-4 days after application, read-out: control of Thanatephorus cucumeris (inhibition of growth, photometric)
Outline: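 At 200 ppm, compounds in DMSO were combined with fresh liquid-culture mycelia in PDB and kept at 24° C; photometric measurement of growth inhibition after 3-4 days.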

[7] = system: Monographella nivalis (Microdochium nivale); assay: Monographella nivalis (Microdochium nivale) / liquid culture (foot rot cereals); assay type: cell-based; conditions: PDB, 24° C., 4-5 days after application, read-out: control of Monographella nivalis (inhibition of growth, photometric)
Protocol: as §1, with “Monographella nivalis (Microdochium nivale)/Liquid” for “Mycosphaerella Arachidis (Cercospora arachidicola)/Liquid”, “(Foot Rot Cereals):” for “(Early Leaf Spot):”, “were” for “are”

[8] = system: Glomerella lagenarium (Colletotrichum lagenarium); assay: Glomerella lagenarium (Colletotrichum lagenarium) / liquid culture (anthracnose); assay type: cell-based; conditions: Colletotrichum orbiculare, PDB, 24° C., 3-4 days after application, read-out: control of Glomerella lagenarium (inhibition of growth, photometric)
Outline: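 Test compound, delivered in DMSO at an application rate of 200 ppm, was combined with spore-containing PDB. Photometric growth-inhibition measurement followed 3-4 days of incubation at 24° C.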

[9] = system: Phaeosphaeria nodorum (Septoria nodorum); assay: Phaeosphaeria nodorum (Septoria nodorum) / wheat / leaf disc preventative (glume blotch); assay type: in vivo; conditions: Parastagonospora nodorum, foliar, wheat leaf segments cv Kanzler, inoculated 2 days after application, assessed 5-7 days after application, read-out: control of Phaeosphaeria nodorum (percent disease control compared to untreated)
Protocol: Phaeosphaeria nodorum (Septoria nodorum)/Wheat/Leaf Disc Preventative (Glume Blotch): Wheat leaf segments cv Kanzler were placed on agar in a 24-well plate and sprayed with formulated test compound diluted in water at an application rate of 200 ppm. The leaf disks are inoculated with a spore suspension of the fungus 2 days after application. The inoculated test leaf disks are incubated at 20° C. and 75% relative humidity under a light regime of 12/12 h (light/dark) in a climate cabinet and the activity of a compound is assessed as percent disease control compared to untreated when an appropriate level of disease damage appears in untreated check leaf disks (5-7 days after application).

[10] = system: Puccinia recondita f. sp. Tritici; assay: Puccinia recondita f. sp. tritici / wheat / leaf disc preventative (brown rust); assay type: in vivo; conditions: foliar, wheat leaf segments cv Kanzler, inoculated 1 day after application, assessed 7-9 days after application, read-out: control of Puccinia recondita f. sp. Tritici (percent disease control compared to untreated)
Outline: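 Preventative test: percent disease control relative to untreated leaf segments was assessed 7-9 days post-application. Wheat (cv Kanzler) leaf discs were treated at 200 ppm and spore-inoculated 1 day afterwards. Discs were held at 19° C and 75% relative humidity under a 12/12 h light cycle.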

melting point [°C] | Compound | pest or weed control at 200 ppm [1] [%] | inhibition at 20 ppm [2] [%] | inhibition at 20 ppm [3] [%] | inhibition at 20 ppm [4] [%] | inhibition at 20 ppm [5] [%] | inhibition at 20 ppm [6] [%] | inhibition at 20 ppm [7] [%] | inhibition at 20 ppm [8] [%] | pest or weed control at 200 ppm [9] [%] | pest or weed control at 200 ppm [10] [%]
170 to 173 | CCn1c(-n2ncnc2N)nc2cncc(C(C)=NOC)c21 [Compound 133] | ≥ 80 | ≥ 80 | ≥ 80 | ≥ 80 | ≥ 80 | ≥ 80 | ≥ 80 |  |  | 
217 to 218 | Nc1ncnn1-c1nc2cncc(Br)c2n1C1CCCCC1 [Compound 112, 2-(7-bromo-1-cyclohexylimidazo[4,5-c]pyridin-2-yl)-1,2,4-triazol-3-amine] |  |  |  |  |  |  |  | ≥ 80 |  | 
234 to 236 | Nc1ncnn1-c1nc2cncc(Br)c2n1CC(F)(F)F [Compound 76, 2-[7-bromo-1-(2,2,2-trifluoroethyl)imidazo[4,5-c]pyridin-2-yl]-1,2,4-triazol-3-amine] | ≥ 80 | ≥ 80 |  | ≥ 80 | ≥ 80 | ≥ 80 |  | ≥ 80 | ≥ 80 | 
198 to 203 | CCc1nc(N)n(-c2nc3cnccc3n2C2CCCCC2)n1 [Compound 7, 2-(1-cyclohexylimidazo[4,5-c]pyridin-2-yl)-5-ethyl-1,2,4-triazol-3-amine] |  |  |  |  |  |  |  | ≥ 80 |  | 
171 to 175 | CCn1c(-n2ncnc2N)nc2cncc(C(C)=NOC(C)(C)C)c21 [Compound 140] | ≥ 80 | ≥ 80 | ≥ 80 | ≥ 80 | ≥ 80 | ≥ 80 |  | ≥ 80 |  | ≥ 80
207 to 208 | CCCn1c(-n2ncnc2N)nc2cncc(Br)c21 [Compound 110, 2-(7-bromo-1-propylimidazo[4,5-c]pyridin-2-yl)-1,2,4-triazol-3-amine] | ≥ 80 | ≥ 80 |  | ≥ 80 |  | ≥ 80 |  |  |  | ≥ 80
205 to 209 | CCn1c(-n2ncnc2N)nc2cncc(C(=O)C=Cc3ccc(F)cc3)c21 [Compound 108, 1-[2-(5-amino-1,2,4-triazol-1-yl)-1-ethylimidazo[4,5-c]pyridin-7-yl]-3-(4-fluorophenyl)prop-2-en-1-one] | ≥ 80 |  |  | ≥ 80 | ≥ 80 | ≥ 80 |  |  |  | 
240 to 244 | Cn1c(-n2ncnc2N)nc2cnccc21 [Compound 14, 2-(1-methylimidazo[4,5-c]pyridin-2-yl)-1,2,4-triazol-3-amine] | ≥ 80 |  |  |  | ≥ 80 |  |  |  |  | 
217 to 221 | Nc1nc(Br)nn1-c1nc2cnccc2n1C1CCCCC1 [Compound 20, 5-bromo-2-(1-cyclohexylimidazo[4,5-c]pyridin-2-yl)-1,2,4-triazol-3-amine] |  |  |  |  |  |  |  | ≥ 80 |  | 
247 to 252 | CCn1c(-n2ncnc2N)nc2cncc(C=Cc3ccccc3)c21 [Compound 21, 2-[1-ethyl-7-(2-phenylethenyl)imidazo[4,5-c]pyridin-2-yl]-1,2,4-triazol-3-amine] |  |  |  | ≥ 80 | ≥ 80 | ≥ 80 |  |  |  | 
220 to 224 | CCn1c(-n2ncnc2N)nc2cncc(Cc3ccccc3)c21 [Compound 25, 2-(7-benzyl-1-ethylimidazo[4,5-c]pyridin-2-yl)-1,2,4-triazol-3-amine] |  | ≥ 80 |  | ≥ 80 | ≥ 80 | ≥ 80 | ≥ 80 |  |  | 
212 to 215 | Cc1nc(N)n(-c2nc3cnccc3n2C2CCCCC2)n1 [Compound 5, 2-(1-cyclohexylimidazo[4,5-c]pyridin-2-yl)-5-methyl-1,2,4-triazol-3-amine] | ≥ 80 |  |  |  | ≥ 80 |  |  |  |  | 
203 to 206 | Nc1nc(C(F)(F)F)nn1-c1nc2cnccc2n1C1CCCCC1 [Compound 3, 2-(1-cyclohexylimidazo[4,5-c]pyridin-2-yl)-5-(trifluoromethyl)-1,2,4-triazol-3-amine] |  |  |  |  |  |  |  | ≥ 80 |  | 
215 to 216 | C=CCn1c(-n2ncnc2N)nc2cnccc21 [Compound 17, 2-(1-prop-2-enylimidazo[4,5-c]pyridin-2-yl)-1,2,4-triazol-3-amine] | ≥ 80 | ≥ 80 |  | ≥ 80 | ≥ 80 | ≥ 80 |  |  |  | ≥ 80
205 to 208 | CCn1c(-n2ncnc2N)nc2cncc(CCc3ccccc3)c21 [Compound 24, 2-[1-ethyl-7-(2-phenylethyl)imidazo[4,5-c]pyridin-2-yl]-1,2,4-triazol-3-amine] | ≥ 80 | ≥ 80 |  | ≥ 80 | ≥ 80 | ≥ 80 | ≥ 80 | ≥ 80 |  | ≥ 80
234 to 236 | CCn1c(-n2ncnc2N)nc2cncc(-c3ccc(C)cc3)c21 [Compound 28, 2-[1-ethyl-7-(4-methylphenyl)imidazo[4,5-c]pyridin-2-yl]-1,2,4-triazol-3-amine] | ≥ 80 | ≥ 80 |  | ≥ 80 |  | ≥ 80 |  | ≥ 80 |  | ≥ 80
196 to 199 | Nc1nc(C2CC2)nn1-c1nc2cnccc2n1C1CCCCC1 [Compound 8, 2-(1-cyclohexylimidazo[4,5-c]pyridin-2-yl)-5-cyclopropyl-1,2,4-triazol-3-amine] |  |  |  |  |  |  |  | ≥ 80 |  | 
138 to 149 | CCn1c(-n2ncnc2N)nc2cncc(C(C)=NOCc3ccccn3)c21 [Compound 142] | ≥ 80 |  |  |  | ≥ 80 | ≥ 80 |  |  |  | 
275 to 277 | CCn1c(-n2ncnc2N)nc2cncc(-c3ccc(F)cc3)c21 [Compound 29, 2-[1-ethyl-7-(4-fluorophenyl)imidazo[4,5-c]pyridin-2-yl]-1,2,4-triazol-3-amine] |  | ≥ 80 |  | ≥ 80 | ≥ 80 | ≥ 80 |  |  |  | 

Source: patent publication US9512120B2, “Microbicidally active imidazopyridine derivatives” (Syngenta Participations AG, priority 2013, dated 2016)
